Results taken from patent publication US8481521B2, “Methods of treating cell proliferative disorders” (Rigel Pharmaceuticals, Inc., priority 2005, dated 2013).
“And” between values parts separate entries of the source, which are not always exact repeats. Equal entries are not always repeated. “Also recorded” adds a separate entry of the source. Where two headings read alike, the source gives them in different places.

Experiments:
[1] = Solubility of drug and phosphate prodrug; assay type: physicochemical; details: water solubility; read-out: Solubility
Text: In contrast, Compound 4 is highly polar at neutral pH. Measured solubility values are consistent with the predicted cLogD values at pH=7.5.

[2] = test system: MV4-11 human acute myeloid leukemia cells; assay type: in vivo; details: for Hazard ratio: 40 mg/kg PO bid vs vehicle; for % Reduction from Vehicle Control, Bone Marrow / % Reduction from Vehicle Control, Peripheral blood: 40 mg/kg PO, bid daily
Experimental: At the end of the acclimatization period for the animals (>3 weeks in this study), mice were pretreated with sterile filtered (using a […] syringe filter) Cyclophosphamide prepared in 0.9% sterile saline (Sigma, St Louis, Mo.) by intraperitoneal injection of 150 mg/kg/day for 2 days followed by a rest period of 72 hours prior to intravenous (i.v.) injection of leukemia cells via the lateral tail vein, as described below.
On day 0 of the study, mice were inoculated once by intravenous tail vein injection of 5 or 10 million human MV4-11 leukemia cells resuspended in 100 microliters of fresh media as outlined in Table 1.
After mice were inoculated with human MV4-11 cells (day 0), dosing began on day 17 of the study. Mice were dosed orally (PO) twice daily (bid) for the duration of the study with either Vehicle or 40 mg/kg VII at 5 mL/kg dose volume with a minimum separation of 8 hours between doses
This study was designed to assess the effects of various doses of VII on tumor engraftment, disease progression, severity, and overall survival in a murine intravenous MV4-11 leukemia model using NOD-SCID immunocompromised mice as a host with cyclophosphamide pretreatment to enhance tumor engraftment.
This study was conducted in an effort to confirm a previous efficacy data from study, but also to determine if 5 or 10 million cell inoculations would yield similar inconsistencies in tumor cell engraftment in the bone marrow and peripheral blood or alter the resultant mortality in these mice. Since a detectable level of engraftment in some animals was observed as early as 4 weeks post tumor cell injection in pilot studies and historical efficacy data had been determined with this regimen, animals were treated orally (PO) with vehicle or R945788 calcium salt at 40 mg/kg on a twice per day (bid) schedule, every day beginning approximately 2 weeks after tumor cell injection. Animals were continued on this regimen until euthanized or until the end of the study. In this experiment, all surviving mice were terminated when mice reached approximately 5 months of age (day 83 of the study) in order to limit the affects of the spontaneous thymoma development, which can be seen in NOD-SCID mice beginning at approximately 5-6 months of age.
On day 0 (Aug. 12, 2005), mice were i.v. injected with human MV4-11 cells in fresh medium at 5 or 10 million cells per mouse via the lateral tail vein. By day 3 post MV4-11 cell injection (on Aug. 15, 2005), one mouse was excluded due to early death from excessive body weight loss prior to randomization or treatment, potentially due to cyclophosphamide treatment. Remaining animals were randomized into treatment groups using body weights and dosing began on day 17 post cell injection (Aug. 29, 2005). Mean body weights of groups 1-4 were 20.66±0.43, 20.23±0.41, 20.18±0.54, and 20.88±0.59, respectively. Treatment groups are outlined in Table 1:
Overall disease severity was determined from a combination of body weight loss, clinical observations, necropsy findings, and quantitation of tumor cell engraftment in selected tissues. Mice were weighed 2-3 times weekly and percent weight change calculated. At the first indication of morbidity, hind limb paralysis with apparent wasting, severe cachexia or weight loss greater than 20%, involving lethargy, ruffled fur etc, as outlined in IACUC Protocol Rigel 6-2002 “Efficacy of Novel Chemotherapeutics in Human/Mouse Tumor Xenograft Models”, animals were removed from the study and euthanized. At sacrifice, animals were anesthetized with CO2 gas and blood was be collected by cardiocentesis. Blood from animal was transferred to K2EDTA coated Microtainer (lavendar top) tubes. Whole blood was placed indirectly on ice and processed for flow cytometric staining, as described in section below. To further assess disease severity, the location and description of palpable or suspected tumors on gross examination was carefully noted upon necropsy. […]

[3] = test system: pErk1/2 and pStat5; test: Immunohistochemical staining for pErk1/2 and pStat5 in MV4-11 tumor sections; assay type: in vivo; details: 40 mg/kg VII, 26 days
Experimental: Tumors were harvested from mice ˜2 hours following final dose of vehicle or 40 mg/kg VII.

[4] = Pharmacokinetics / oral bioavailability in Sprague-Dawley rats; assay type: in vivo
Experimental: Prodrug Compound 4 was tested for oral bioavailability. For the study, the prodrug was dissolved in various vehicles (e.g. PEG 400 solution and CMC suspension) for intravenous and oral dosing in the rats. […] Following administration of the prodrug and/or drug, plasma samples were obtained and extracted. The plasma concentrations of the prodrug and/or drug were determined by high performance liquid chromatography/tandem mass spectrometry (LC/MS/MS) methods. Pharmacokinetic analyses were performed based on the plasma concentration data. The pharmacokinetic parameters of interest include Clearance (CL), Volume of distribution at steady-state (Vss), terminal half-life (t1/2), and oral bioavailability (% F).
Referring to FIG. 16, PK profiles are shown for IV and PO administration in Spraque-Dawley rats. For IV administration, Compound 4 was dissolved in PEG-400 and administered at a dose of 1 mg/kg.
FIG. 17 summarizes the PK parameters for the study described in FIG. 4.
FIG. 23 illustrates the absorption of prodrug Compound 4 from different vehicles.

[5] = Stability under acidic and neutral conditions; assay type: physicochemical; details: 37° C.
[6] = Conversion of prodrug to drug in microsome preparations; assay type: in vitro ADME, rat
Text: (§1) Although phosphate-containing prodrugs suitable for oral administration are of interest, skilled artisans will appreciate that prodrugs including phosphate-containing progroups R^P can be administered via other routes of administration, as phosphatases are distributed throughout the body. […] Thus, the only requirement is that the particular phosphate-containing progroup R^P selected should be removable under the conditions of intended use.

[7] = Stability of prodrug in rat plasma; assay type: in vitro ADME
Text: as §1
The presence of Phosphatase activity in rat plasma was confirmed using p-nitrophenyl phosphate—a known substrate for phosphatase.

[8] = 5 million cells, 40 mg/kg, at sacrifice, listed as VII

SMILES: COc1cc(Nc2ncc(F)c(Nc3ccc4c(n3)N(COP(=O)(O)O)C(=O)C(C)(C)O4)n2)cc(OC)c1OC [Compound 4, N4-(2,2-dimethyl-4-[(dihydrogenphosphonoxy)methyl]-3-oxo-5-pyrido[1,4]oxazin-6-yl)-5-fluoro-N2-(3,4,5-trimethoxyphenyl)-2,4-pyrimidinediamine]
- solubility [1]: > 5000 µg/mL
- Median DOD (day of death) ([2]; 5E6 MV4-11 cells i.v., 40 mg/kg PO bid from day 17): 79 days
- Hazard ratio ([2]; 5E6 cells): 3.5
- % ILS (percent increase in life-span) ([2]; 5E6 cells, 40 mg/kg PO bid, vs vehicle median DOD 54 days): 45%
- animals necropsied showing visible or palpable tumors ([2]; 5 million cells, 40 mg/kg): 3 out of 11
- animals terminated by study termination ([2]; 5 million cells, 40 mg/kg): 7 of 12
- surviving mice at day 83 ([2]; 5 million cells, 40 mg/kg PO bid, group of 12): 5
- % Reduction from Vehicle Control, Bone Marrow ([2]; 5 million cells): 96%
- % Reduction from Vehicle Control, Peripheral blood ([2]; 5 million cells): 99%
- Bone Marrow: Mean % Tumor Cells (CD33+HLA+) [2, 8]: 1% and 1.03%
- Peripheral Blood: Mean % Tumor Cells (CD33+HLA+) [2, 8]: 0.6% and 0.59%
- Hazard ratio ([2]; 10E6 cells): 7.6
- animals necropsied showing visible or palpable tumors ([2]; 10 million cells, 40 mg/kg): 7 out of 13
- animals terminated by study termination ([2]; 10 million cells, 40 mg/kg): 4 out of 13
- surviving mice at day 83 ([2]; 10 million cells, 40 mg/kg PO bid, group of 13): 9
- % Reduction from Vehicle Control, Bone Marrow ([2]; 10 million cells): 59%
- % Reduction from Vehicle Control, Peripheral blood ([2]; 10 million cells, all samples): 80%
- Peripheral Blood: Mean % Tumor Cells (CD33+HLA+) ([2]; 10 million cells, 40 mg/kg, all samples): 10.32%
- Bone Marrow: Mean % Tumor Cells (CD33+HLA+) ([2]; 10 million cells, 40 mg/kg, at sacrifice, listed as VII): 5% and 5.21%
- mice survived to Day 83 ([2]; 10 million cells, 40 mg/kg, vehicle 0%): Over 50%
- tolerability in NOD-SCID mice ([2]; mouse, in vivo): well tolerated
- STATS and ERK1/2 phosphorylation in tumor sections [3]: reduced
- prodrug in plasma after IV administration ([4]; 1 mg/kg IV in PEG-400): Rapid disappearance
- absorption from different vehicles ([4]; PEG-400, CMC, powder in hard gelatin capsules): absorbed equally well
- plasma levels of drug metabolite Compound III after oral prodrug ([4]; PO in PEG-400): high levels
- prodrug present systemically after oral administration ([4]; PO in PEG-400): no prodrug Compound 4 was present systemically
- AUC/dose of drug Compound III exposure ([4]; oral Compound III 2.5 mg/kg or Compound 4 4 mg/kg in PEG-400): nearly identical
- stability under acidic and neutral conditions [5]: stable
- conversion to drug Compound III in intestinal and hepatic microsomes ([6]; microsomes from a different source): metabolize to the active drug Compound III; also recorded: conversion of Compound 4 to Compound III was observed
- conversion to drug Compound III in microsomal preparations ([6]; preparations obtained from Xenotech): failed to convert
- stability in rat plasma (hydrolysis to Compound III) [7]: metabolize to the active drug Compound III; also recorded: unstable
